Some test systems named below: ACHN renal; NCI-H460 lung; U251 CNS; SK-MEL-28 melanoma; MOLT-4 leukemia; SF-268 CNS; NCI-H522 lung; OVCAR-4 ovarian; HOP-92 NSCLC.
What all share (assay): NCI-60 cell line screen, 48 h

Structures are written as SMILES.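 Briefly, cells in 96-well plates were exposed to five compound concentrations for 48 h, and endpoints were estimated by linear interpolation. TGI is the concentration that stops growth completely.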 Where a SMILES comes first, the peptide text is derived from it. The star is where a group is joined. Boc = CC(C)(C)OC(=O)*

In PubChem BioAssay (NCI) one finds TGI data, which are given here for 16 molecules.

With `NC1=NCC(CN2CCCCC2)O1` (configuration not stated), the TGI with ACHN renal, in the assay with NCI-H460 lung, in the assay with U251 CNS, with SK-MEL-28 melanoma, in the assay with MOLT-4 leukemia and with SF-268 CNS was > 100 µM in each case. Also, in the assay with NCI-H522 lung, the TGI is > 100 µM.
Take `O=C(NNC(=S)Nc1ccc(Cl)cc1)C12CC3CC(CC(C3)C1)C2`: the TGI was found to be 29 µM with ACHN renal; 24.5 µM in the assay on NCI-H460 lung; 24.8 µM in the assay on U251 CNS; 54.5 µM in the assay on OVCAR-4 ovarian; 60.8 µM in the assay on SK-MEL-28 melanoma; 10.7 µM in the assay on MOLT-4 leukemia. For the same molecule, the TGI in the assay on SF-268 CNS came out at 32 µM; in the assay with HOP-92 NSCLC, 56.7 µM; in the assay with NCI-H522 lung it was 20.2 µM.
In the case of `CC(=O)c1cc(CC2Cc3cc4c(cc3C2=O)CCC4)cc2c1CCC2` (configuration not stated), the TGI was > 100 µM in the assay on ACHN renal; > 100 µM in the assay with NCI-H460 lung; > 100 µM in the assay with U251 CNS; > 100 µM in the assay with OVCAR-4 ovarian; > 100 µM in the assay with SK-MEL-28 melanoma; 90.5 µM with MOLT-4 leukemia. Besides, the TGI in the assay on SF-268 CNS and in the assay with NCI-H522 lung was > 100 µM throughout.
On to `COc1ccc(N=C(CS(=O)c2ccc(C)cc2)C(F)(F)F)cc1` (configuration not stated), for which the TGI with ACHN renal, in the assay with NCI-H460 lung, in the assay with U251 CNS, in the assay on OVCAR-4 ovarian, in the assay on SK-MEL-28 melanoma and in the assay on MOLT-4 leukemia was > 100 µM throughout. In addition, the TGI in the assay with HOP-92 NSCLC and with NCI-H522 lung was > 100 µM each time.
`CC(NC(=O)C1CCCN1C(=O)CNC(=O)OC(C)(C)C)C(=O)O` (stereo not drawn) (Boc-Gly-Pro-Ala-OH; configuration not given here): the TGI in the assay on ACHN renal, in the assay on NCI-H460 lung, with U251 CNS, in the assay with SK-MEL-28 melanoma, in the assay on MOLT-4 leukemia and with SF-268 CNS was > 100 µM each time. Moreover, the TGI in the assay with HOP-92 NSCLC and in the assay with NCI-H522 lung was > 100 µM each time.
Turning to `CN1C(=O)N/C(=C\c2ccc(S(=O)(=O)N/N=C/c3ccccc3)cc2)C1=O`, the TGI is > 100 µM in the assay with ACHN renal; 34.4 µM in the assay on NCI-H460 lung; > 100 µM with U251 CNS; > 100 µM in the assay with OVCAR-4 ovarian; > 100 µM in the assay with SK-MEL-28 melanoma; 83.7 µM with MOLT-4 leukemia. Further, the TGI in the assay on SF-268 CNS was > 100 µM; in the assay with HOP-92 NSCLC, 75.5 µM.
For the molecule `O=c1oc2ccc3ccccc3c2cc1-c1nc(-c2ccc([N+](=O)[O-])cc2)n[nH]1`, the TGI in the assay on ACHN renal, with NCI-H460 lung, with U251 CNS, in the assay on OVCAR-4 ovarian, with SK-MEL-28 melanoma and with MOLT-4 leukemia was > 100 µM in each case. The TGI is 4.56 µM in the assay on SF-268 CNS and > 100 µM in the assay with NCI-H522 lung.
Regarding `CCOc1ccc(N2C(=O)NC3(c4ccccc4)N(C)C(=O)N(C)C23c2ccccc2)cc1` (configuration not stated), the TGI in the assay with ACHN renal, in the assay on U251 CNS, with SK-MEL-28 melanoma, in the assay with MOLT-4 leukemia, in the assay on HOP-92 NSCLC and with NCI-H522 lung was > 100 µM each time.
Take `CCOC(=O)NC(Nc1ccc(S(=O)(=O)Nc2ccc(OC)nn2)cc1)(C(F)(F)F)C(F)(F)F`: the TGI in the assay with ACHN renal was 90.7 µM; in the assay on NCI-H460 lung it was > 100 µM; with U251 CNS, 41 µM; in the assay with OVCAR-4 ovarian, > 100 µM; with SK-MEL-28 melanoma it was 55.6 µM; in the assay with MOLT-4 leukemia, 49.5 µM. Moreover, the figures for the TGI in the assay with SF-268 CNS and in the assay on HOP-92 NSCLC were > 100 µM and 73.2 µM, respectively.
Consider `N#CC(NNC(=O)c1c(Cl)c(Cl)c(Cl)c(Cl)c1-c1nc2ccc(C(=O)c3ccccc3)cc2[nH]1)c1ccccc1` (configuration not stated), for which the TGI in the assay on ACHN renal was > 100 µM; in the assay with U251 CNS, > 100 µM; with OVCAR-4 ovarian, > 100 µM; in the assay with SK-MEL-28 melanoma it was > 100 µM; with MOLT-4 leukemia, 27.7 µM; with SF-268 CNS, > 100 µM. Besides, the TGI in the assay on HOP-92 NSCLC is > 100 µM; in the assay on NCI-H522 lung it was 18 µM.
Take `C=C1C2C[C@@H]3O[C@H]4C[C@H]5O[C@@]6(C[C@@H]7O[C@]8(C[C@H](C)[C@@H]9O[C@@H]%10CC(C=O)O[C@@H]%10C[C@@H]9O8)C[C@H](C)[C@@H]7O6)C[C@H]5O[C@H]4[C@H](C)[C@H]3OC(=O)C[C@H]3CC[C@@H]4OC5[C@H]6O[C@]7(CC[C@H]8CC(=C)[C@H](CC[C@@H](C[C@H]1C)O2)O8)CC6O[C@@H]5[C@@H](O7)[C@H]4O3` (some centres not stated): the TGI in the assay on ACHN renal is > 1 µM; in the assay on NCI-H460 lung, > 1 µM; in the assay on U251 CNS, > 1 µM; with OVCAR-4 ovarian, > 1 µM; in the assay on MOLT-4 leukemia it was > 1 µM; with HOP-92 NSCLC, > 0.42 µM. Further, the TGI in the assay on NCI-H522 lung is < 0.0001 µM.
In the case of `C=C[C@]1(C)CC(=O)C(C(C)C=O)[C@]12C(=O)Oc1cccc(C)c1C2=O` (some centres not stated), the TGI was 29 µM in the assay on ACHN renal; 30.5 µM with NCI-H460 lung; 28.3 µM in the assay on U251 CNS; 35.5 µM in the assay on OVCAR-4 ovarian; 29.2 µM with SK-MEL-28 melanoma; > 100 µM in the assay with MOLT-4 leukemia. The TGI in the assay with SF-268 CNS is 43.3 µM; in the assay on NCI-H522 lung it was 18.2 µM.
On to `N#CC(c1ccccc1)N(CCc1ccccc1)C(=O)c1ccc(C(=O)N(CCc2ccccc2)C(C#N)c2ccccc2)cc1` (configuration not stated), for which the TGI with ACHN renal was 73.5 µM; with NCI-H460 lung, 37 µM; in the assay on U251 CNS, 64.6 µM; in the assay on OVCAR-4 ovarian, 64 µM; in the assay with SK-MEL-28 melanoma it was 51.3 µM; with SF-268 CNS, 55.2 µM. For the same molecule, the TGI in the assay on HOP-92 NSCLC was found to be 28.1 µM.
Regarding `COc1ccc(-c2[nH]c(-c3ccc(OC)cc3)c(-c3ccccn3)c2-c2ccccn2)cc1`, the TGI with ACHN renal, with NCI-H460 lung, in the assay with U251 CNS, in the assay on MOLT-4 leukemia, in the assay on SF-268 CNS and in the assay on HOP-92 NSCLC was > 100 µM throughout.
Turning to `CC1=NNC(=O)C1C1CC(c2c[nH]c3ccccc23)=NN(c2ccccc2)C1=O` (configuration not stated), the TGI with ACHN renal, in the assay on NCI-H460 lung, in the assay with U251 CNS, in the assay on SK-MEL-28 melanoma, with MOLT-4 leukemia and in the assay on SF-268 CNS was > 100 µM throughout. The TGI in the assay on HOP-92 NSCLC is > 100 µM; with NCI-H522 lung, 77.9 µM.
For the molecule `O=c1sc(Nc2ccc3ccccc3c2Cl)nc2ccccc12`, the TGI with ACHN renal, in the assay with NCI-H460 lung, in the assay on U251 CNS, in the assay with OVCAR-4 ovarian, in the assay on SK-MEL-28 melanoma and in the assay on SF-268 CNS was > 100 µM each time. Further, the TGI with HOP-92 NSCLC and with NCI-H522 lung was > 100 µM throughout.
